Experimental data as given in PubChem BioAssay AID330 (DTP/NCI, 2004).
Values joined by “and” are separate entries in the source; they are usually repeats but may differ in a detail not shown here. Equal values may be shown once. Inconclusive results and toxic doses are left out. The calls were made as follows: active = survival T/C of 150% or more; inactive = T/C below 125% in these data.

System: P388 leukemia ip, CD2F1 mice, survival T/C
Experiment: NCI In Vivo Anticancer Drug Screen. Data for tumor model P388 Leukemia (intraperitoneal) in CD2F1 (CDF1) mice
Conditions: endpoint: median survival time, higher = longer survival
Procedure, shortened: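 Mice carrying the transplanted tumor received test compound or vehicle. Survival was recorded in each group, and the value is the treated-group measurement divided by that of the vehicle-treated control group.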

[1] = dose: 50.0 mg/kg/injection, schedule: Q01DX005 (ip), vehicle: Klucel (hydroxypropylcellulose) (HPC)
[2] = dose: 100.0 mg/kg/injection, schedule: Q01DX005 (ip), vehicle: Klucel (hydroxypropylcellulose) (HPC)
[3] = dose: 200.0 mg/kg/injection, schedule: Q01DX005 (ip), vehicle: Klucel (hydroxypropylcellulose) (HPC)
[4] = dose: 60.0 mg/kg/injection, schedule: Q01DX005 (ip), vehicle: saline with Tween-80
[5] = dose: 120.0 mg/kg/injection, schedule: Q01DX005 (ip), vehicle: saline with Tween-80
[6] = dose: 240.0 mg/kg/injection, schedule: Q01DX005 (ip), vehicle: saline with Tween-80
[7] = dose: 12.5 mg/kg/injection, schedule: Q01DX009 (ip), vehicle: Klucel (hydroxypropylcellulose) (HPC)
[8] = dose: 200.0 mg/kg/injection, schedule: Q01DX009 (ip), vehicle: saline with Tween-80
[9] = dose: 400.0 mg/kg/injection, schedule: Q01DX009 (ip), vehicle: saline with Tween-80
[10] = dose: 50.0 mg/kg/injection, schedule: Q01DX009 (ip), vehicle: saline with Tween-80
[11] = dose: 100.0 mg/kg/injection, schedule: Q01DX009 (ip), vehicle: saline with Tween-80

Measured: T/C

CCNC(=O)c1nnn2c1nc(N)c1cc(Cl)ccc12
inactive: dose: 12.5 mg/kg/injection, schedule: Q01DX005 (ip), vehicle: Klucel (hydroxypropylcellulose) (HPC) 96 % of control | dose: 25.0 mg/kg/injection, schedule: Q01DX005 (ip), vehicle: Klucel (hydroxypropylcellulose) (HPC) 96 % of control | [1] 95 % of control | [2] 94 % of control | [3] 88 % of control

CNC(=O)OCc1c(COC(=O)NC)c(-c2ccc([N+](=O)[O-])cc2)n(C)c1C
active: dose: 6.25 mg/kg/injection, schedule: Q01DX009 (ip), vehicle: distilled water + Tween-80 151 % of control and 153 % of control | dose: 12.5 mg/kg/injection, schedule: Q01DX009 (ip), vehicle: distilled water + Tween-80 159 % of control and 169 % of control

CSCC[C@@H]1C(=O)N(C)[C@H](C(C)(C)C)N1C(=O)c1ccccc1
inactive: [4] 100 % of control | [5] 100 % of control | [6] 97 % of control

C[Si](OC(=O)N(CCCl)CCCl)(c1ccccc1)c1ccccc1
inactive: dose: 3.12 mg/kg/injection, schedule: Q01DX009 (ip), vehicle: Klucel (hydroxypropylcellulose) (HPC) 103 % of control | dose: 6.25 mg/kg/injection, schedule: Q01DX009 (ip), vehicle: Klucel (hydroxypropylcellulose) (HPC) 106 % of control | [7] 113 % of control

Cc1cc(N(CCCl)CCCl)ccc1C=Nc1ccc(F)cc1
active: [8] 155 % of control | [9] 165 % of control | dose: 400.0 mg/kg/injection, schedule: Q04DX003 (ip), vehicle: saline with Tween-80 150 % of control | dose: 600.0 mg/kg/injection, schedule: Q04DX003 (ip), vehicle: saline with Tween-80 168 % of control
inactive: dose: 100.0 mg/kg/injection, schedule: Q04DX003 (ip), vehicle: saline with Tween-80 104 % of control | dose: 264.0 mg/kg/injection, schedule: Q04DX003 (ip), vehicle: saline with Tween-80 109 % of control

CCOCC(COCC)(COCC)COCC
inactive: dose: 12.5 mg/kg/injection, schedule: Q01DX009 (ip), vehicle: saline with Tween-80 110 % of control | dose: 25.0 mg/kg/injection, schedule: Q01DX009 (ip), vehicle: saline with Tween-80 110 % of control | [10] 119 % of control

NC(N)=O.NC(N)=O.NC(N)=O.NC(N)=O.NC(N)=O.NC(N)=O.[Cr]
inactive: dose: 3.13 mg/kg/injection, schedule: Q04DX003 (ip), vehicle: saline 98 % of control | dose: 6.25 mg/kg/injection, schedule: Q04DX003 (ip), vehicle: saline 101 % of control | dose: 12.5 mg/kg/injection, schedule: Q04DX003 (ip), vehicle: saline 101 % of control and 102 % of control | dose: 25.0 mg/kg/injection, schedule: Q04DX003 (ip), vehicle: saline 103 % of control

O=C1c2ccccc2-c2c(Br)cc(Br)c(NC(=O)C(Cl)Cl)c21
inactive: [4] 96 % of control | [5] 96 % of control | [6] 92 % of control

N#Cc1c(-c2ccccc2)c(-c2ccccc2)nn(CC(=O)O)c1=O
inactive: dose: 12.5 mg/kg/injection, schedule: Q01DX005 (ip), vehicle: sodium bicarbonate 102 % of control | dose: 25.0 mg/kg/injection, schedule: Q01DX005 (ip), vehicle: sodium bicarbonate 100 % of control | dose: 25.0 mg/kg/injection, schedule: Q04DX002 (ip), vehicle: distilled water + Tween-80 101 % of control | dose: 50.0 mg/kg/injection, schedule: Q01DX005 (ip), vehicle: sodium bicarbonate 101 % of control | dose: 50.0 mg/kg/injection, schedule: Q04DX002 (ip), vehicle: distilled water + Tween-80 100 % of control | dose: 100.0 mg/kg/injection, schedule: Q01DX005 (ip), vehicle: sodium bicarbonate 102 % of control | dose: 100.0 mg/kg/injection, schedule: Q04DX002 (ip), vehicle: distilled water + Tween-80 101 % of control | dose: 200.0 mg/kg/injection, schedule: Q01DX005 (ip), vehicle: sodium bicarbonate 92 % of control | dose: 200.0 mg/kg/injection, schedule: Q04DX002 (ip), vehicle: distilled water + Tween-80 99 % of control

O=C1C2=C(SCCS2)C(=O)N1c1cccc2ccccc12
inactive: dose: 50.0 mg/kg/injection, schedule: Q01DX009 (ip), vehicle: saline 97 % of control | dose: 100.0 mg/kg/injection, schedule: Q01DX009 (ip), vehicle: saline 97 % of control | dose: 200.0 mg/kg/injection, schedule: Q01DX009 (ip), vehicle: saline 100 % of control

COc1cc(C(=O)OC(C)CC2(c3ccccc3)C(=O)NC(=O)NC2=O)cc(OC)c1OC (stereo not given)
inactive: [10] 90 % of control | [11] 90 % of control

CC1=CC(=O)C(/C=C(\C)[N+](=O)[O-])=CC1=O
inactive: [7] 97 % of control | dose: 25.0 mg/kg/injection, schedule: Q01DX009 (ip), vehicle: Klucel (hydroxypropylcellulose) (HPC) 99 % of control

O=NN(CCF)C(=O)NC1CCCCC1
active: dose: 16.5 mg/kg/injection, schedule: Q04DX003 (ip), vehicle: saline with Tween-80 209 % of control | dose: 25.0 mg/kg/injection, schedule: Q04DX003 (ip), vehicle: saline with Tween-80 225 % of control

Nc1nc(C2CCCC2)c(I)c(=O)[nH]1
inactive: [1] 105 % of control | [2] 108 % of control | [3] 92 % of control

CCCCOC1OCN(C2CCCCC2)CC1(C)C (stereo not given)
inactive: [10] 104 % of control and 121 % of control | [9] 120 % of control

CC(C)(C)OC(=O)NC(CO)C(=O)O (stereo not given)
inactive: [10] 96 % of control | [11] 96 % of control | [8] 99 % of control

CN(Cc1cnc2nc(N)nc(N)c2n1)c1ccc(C(=O)NC(CCC(=O)O)C(=O)O)cc1Br (stereo not given)
active: dose: 0.62 mg/kg/injection, schedule: Q01DX009 (ip), vehicle: saline sonified 209 % of control | dose: 1.25 mg/kg/injection, schedule: Q01DX009 (ip), vehicle: saline sonified 236 % of control | dose: 2.5 mg/kg/injection, schedule: Q01DX009 (ip), vehicle: saline sonified 245 % of control | dose: 5.0 mg/kg/injection, schedule: Q04DX003 (ip), vehicle: saline with Tween-80 200 % of control | dose: 6.6 mg/kg/injection, schedule: Q04DX003 (ip), vehicle: saline with Tween-80 166 % of control | dose: 10.0 mg/kg/injection, schedule: Q04DX003 (ip), vehicle: saline with Tween-80 166 % of control and 200 % of control

O=C(NC[N+]12CCO[B-]1(c1ccc(Cl)cc1)OCC2)c1ccccc1O (stereo not given)
inactive: [1] 106 % of control | [2] 98 % of control | [3] 103 % of control

COC(=O)/C1=C/CCC2=CC(CCC1)OC2=O (stereo not given)
inactive: dose: 35.75 mg/kg/injection, schedule: Q01DX005 (ip), vehicle: Klucel (hydroxypropylcellulose) (HPC) 103 % of control | dose: 71.5 mg/kg/injection, schedule: Q01DX005 (ip), vehicle: Klucel (hydroxypropylcellulose) (HPC) 99 % of control | dose: 143.0 mg/kg/injection, schedule: Q01DX005 (ip), vehicle: Klucel (hydroxypropylcellulose) (HPC) 97 % of control

CC1=N[C@@H](N2CCOCC2)[C@H](N2CCOCC2)N1c1ccccc1
inactive: dose: 50.0 mg/kg/injection, schedule: Q01DX005 (ip), vehicle: saline 100 % of control | dose: 100.0 mg/kg/injection, schedule: Q01DX005 (ip), vehicle: saline 107 % of control | dose: 200.0 mg/kg/injection, schedule: Q01DX005 (ip), vehicle: saline 102 % of control
